Molecules are shown by their SMILES.

The target in data set [1] is T1, α2B receptor (Homo sapiens, UniProt P18089).
T1 construct: host or cells: LM(tk-) cells, line L-NGC-α2B
T1 sequence (P18089 1-450): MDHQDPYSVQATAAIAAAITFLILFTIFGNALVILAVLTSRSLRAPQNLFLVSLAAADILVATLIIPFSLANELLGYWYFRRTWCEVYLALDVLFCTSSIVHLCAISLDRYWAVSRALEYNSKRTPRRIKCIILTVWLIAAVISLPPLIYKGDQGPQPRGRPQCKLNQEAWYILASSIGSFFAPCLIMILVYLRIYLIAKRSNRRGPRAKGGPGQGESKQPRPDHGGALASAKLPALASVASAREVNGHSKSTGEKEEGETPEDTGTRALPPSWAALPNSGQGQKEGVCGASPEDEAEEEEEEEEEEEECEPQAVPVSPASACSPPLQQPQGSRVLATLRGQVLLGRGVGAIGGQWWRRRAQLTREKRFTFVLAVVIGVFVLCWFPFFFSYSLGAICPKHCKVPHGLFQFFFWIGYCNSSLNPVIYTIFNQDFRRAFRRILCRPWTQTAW
Description: Competition binding, [3H]rauwolscine, human α2B receptor. The conditions noted are these: for Ki: pKi alpha-2 2b. In a few lines:
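Equilibrium displacement of [3H]rauwolscine (0.5 nM) measured on membranes from stably transfected LM(tk−) lines, one per α2 subtype, in glycylglycine buffer at pH 7.6. Nonspecific binding set by 10 μM phentolamine; separation by filtration.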

The test system of data set [2] is human prostatic tissue. Description: In vitro human prostate model: block of phenylephrine-induced contraction of human prostatic tissue. In kind it is cell-based. The conditions noted are these: block of phenylephrine-induced contraction of human prostate. The source says:
The protocol for these experiments is given below.
Functional Properties of α1 Antagonists in the Human Prostate
The efficacy of α1 adrenergic antagonists for the treatment of benign prostatic hyperplasia (BPH) is related to their ability to elicit relaxation of prostate smooth muscle. An index of this efficacy can be obtained by determining the potency of al antagonists to antagonize the contraction of human prostatic tissue induced by an α1 agonist “in vitro”. Furthermore, by comparing the potency of subtype selective α1 antagonists in binding assays using human α1 receptors with their potency to inhibit agonist-induced smooth muscle contraction, it is possible to determine which of the α1 adrenergic receptor subtypes is involved in the contraction of prostate smooth muscle.
Prostatic adenomas were obtained at the time of surgery from patients with symptomatic BPH. […] The baths were maintained at 37° C. and continuously oxygenated with 5% CO2 and 95% O2. Isometric tension was measured with a Grass Instrument FT03 force transducer interfaced with a computer. Tissue strips were contracted with varying concentrations of phenylephrine after incubating for 20 minutes in the absence and presence of at least three different concentrations of antagonist. Dose-response curves for phenylephrine were constructed, and the antagonist potency (pA2) was estimated by the dose-ratio method. The concentration of some antagonists in the tissue bath was assessed by measuring the displacement of [3H]prazosin by aliquots of the bath medium, using membrane preparations of the cloned human α1C receptor. This control was necessary to account for losses of antagonist due to adsorption to the tissue bath and/or metabolism during the time the antagonists were equilibrated with the prostate tissue.

Where [3] appears, read: [3H]rauwolscine, human α2B receptor, LM(tk−) cells.
Setting [4] is: [3H]rauwolscine, LM(tk-) cell line L-NGC-α2B, SEM and n in lines below.

In the case of `CCC1=C(C(N)=O)C(c2ccc([N+](=O)[O-])cc2)C(C(=O)NCCCN2CCC(C#N)(c3ccccc3)CC2)=C(CC)N1` (single isomer, unassigned; (+)) [(+)-102], affinity in data set [1] (setting [3]) was put at a Ki of 1.91 µM. Besides, the pA2 in data set [2] is given as 10.43 ± 0.14.

As to `COC(=O)C1=C(C)NC(C)=C(C(=O)NCCCN2CCC(c3ccccc3)(c3ccccc3)CC2)C1c1ccc(F)cc1` (stereo not drawn) [Example 20, 4-(4-Fluorophenyl)-1,4-dihydro-3-methoxycarbonyl-2,6-dimethyl-5-(N-(3-(4,4-diphenylpiperidin-1-yl)propyl)carboxamido)pyridine], the melting point was 251 to 251.5 °C. In data set [1], this molecule showed a Ki of 1.32 µM.

Regarding `COC(=O)C1=C(C)NC(C)=C(C(=O)NCCCN2CCC(c3ccccc3)(c3ccccc3)CC2)C1c1cc(OC)c(OC)c(OC)c1` (stereo not drawn) [Example 27], the melting point fell in the range of 187 to 188 °C. The molecule further had a Ki in data set [1] of 1.05 µM.

Turning to `COC(=O)C1=C(C)NC(C)=C(C(=O)NCCCN2CCC(c3ccccc3)(c3ccccc3)CC2)C1c1ccc2c(c1)OCO2` (stereo not drawn) [Example 11, 1,4-Dihydro-3-methoxycarbonyl-2,6-dimethyl-4-(3,4-methylenedioxyphenyl)-5-(N-(3-(4,4-diphenylpiperidin-1-yl)propyl)carboxamido)pyridine], the melting point lay within 197 to 200 °C. In data set [1], this molecule gave a Ki of 0.871 µM.

As to `COC(=O)C1=C(C)NC(C)=C(C(=O)NCCCN2CCC(c3ccccc3)(c3ccccc3)CC2)C1c1ccc(Cl)c([N+](=O)[O-])c1` (stereo not drawn) [Example 16, 4-(4-Chloro-3-nitrophenyl)-1,4-dihydro-3-methoxycarbonyl-2,6-dimethyl-5-(N-(3-(4,4-diphenylpiperidin-1-yl)propyl)carboxamido)pyridine], the melting point is 178 to 181 °C. The same molecule showed a Ki in data set [1] of 1.82 µM.

The molecule `COC(=O)C1=C(C)NC(C)=C(C(=O)NCCCN2CCC(c3ccccc3)(c3ccccc3)CC2)C1c1ccc(OC)c(OC)c1` (stereo not drawn) [Example 26] displayed a melting point of 180 to 181 °C. The molecule also gave a Ki in data set [1] of 0.977 µM.

As for `COC(=O)C1=C(C)NC(C)=C(C(=O)NCCCN2CCC(c3ccccc3)(c3ccccc3)CC2)C1c1cc[n+]([O-])cc1` (stereo not drawn) [Example 9, 1,4-Dihydro-3-methoxycarbonyl-2,6-Dimethyl-4-(1-oxido-4-pyridyl)-5-(N-(3-(4,4-diphenylpiperidin-1-yl)propyl)carboxamido)pyridine], the melting point was 206 to 209 °C (dec.). Moreover, in data set [1] (setting [4]), the affinity corresponds to a Ki of 0.55 µM.

Take `COC(=O)C1=C(C)NC(C)=C(C(=O)NCCCN2CCC(c3ccccc3)(c3ccccc3)CC2)C1c1ccc(C(=O)OC)cc1` (stereo not drawn) [Example 25, 1,4-Dihydro-3-methoxycarbonyl-4-(4-methoxycarbonylphenyl)-2,6-dimethyl-5-(N-(3-(4,4-diphenylpiperidin-1-yl)propyl)carboxamide)pyridine]: the melting point was in the range of 175.5 to 176 °C. Further, the affinity in data set [1], expressed as Ki, was 0.501 µM.

`CCC1=C(C(N)=O)C(c2ccc([N+](=O)[O-])cc2)C(C(=O)NCCCN2CCC(c3ccccc3)(c3ccccc3)CC2)=C(C)N1` (stereo not drawn) [Example 41, 3-Carboxamido-2-ethyl-1,4-dihydro-6-methyl-4-(4-nitrophenyl)-3-{N-[3-(4,4-diphenylpiperidin-1-yl)propyl]}carboxamidopyridine] yielded a melting point of 120 to 124 °C. In data set [1] (setting [4]), this molecule had a Ki of 0.603 µM.

In the case of `COC(=O)C1=C(C)NC(C)=C(C(=O)NCCCN2CCC(c3ccccc3)(c3ccccc3)CC2)C1c1ccncc1` (stereo not drawn) [Example 5, 1,4-Dihydro-5-methoxycarbonyl-2,6-dimethyl-3-(N-(3-(4,4-diphenylpiperidin-1-yl)propyl)carboxamido)-4-(4-pyridyl)pyridine], the melting point was 224 to 226 °C (dec.). The molecule further showed an inhibition constant (Ki) in data set [1] of 2.14 µM.

As for `COC(=O)C1=C(C)NC(C)=C(C(=O)NCCCN2CCC(c3ccccc3)(c3ccccc3)CC2)C1C1CCCCC1` (stereo not drawn) [Example 6], the melting point lay in the range of 171 to 174 °C. Moreover, the affinity in data set [1] corresponds to a Ki of 0.447 µM.

As to `COC(=O)C1=C(C)NC(C)=C(C(=O)NCCCN2CCC(c3ccccc3)(c3ccccc3)CC2)C1c1ccc(Cl)cc1` (stereo not drawn) [Example 10, 4-(4-Chlorophenyl)-1,4-dihydro-5-methoxycarbonyl-2,6-Dimethyl-5-(N-(3-(4,4-diphenylpiperidin-1-yl)propyl)carboxamido)pyridine], the melting point lay within 240 to 242 °C. In data set [1], this molecule gave a Ki of 3.31 µM.

On to `COC(=O)C1=C(C)NC(C)=C(C(=O)NCCCN2CCC(c3ccccc3)(c3ccccc3)CC2)C1c1ccc(I)cc1` (stereo not drawn) [Example 13, 1,4-Dihydro-4-(4-iodophenyl)-3-methoxycarbonyl-2,6-dimethyl-5-(N-(3-(4,4-diphenylpiperidin-1-yl)propyl)carboxamido)pyridine], for which the melting point is 228 to 230 °C (dec.). In data set [1], this molecule gave a Ki of 1.74 µM.

The molecule `CNC(=O)C1=C(C)NC(C)=C(C(=O)NCCCN2CCC(O)(c3ccccc3)CC2)C1c1ccc([N+](=O)[O-])cc1` (stereo not drawn) [Example 162, 1,4-Dihydro-3-{N-[3-(4-hydroxy-4-phenylpiperidin-1-yl)propyl]}carboxamido-2,6-dimethyl-5-(N-methyl)carboxamido-4-(4-nitrophenyl)pyridine] had a melting point of 87 to 91 °C. This molecule showed a Ki in data set [1] (setting [3]) of 0.347 µM.

For `CCC1=C(C(=O)NCCCN2CCC(c3ccccc3)(c3ccccc3)CC2)C(c2ccc([N+](=O)[O-])cc2)C(C(=O)OC)=C(C)N1` (stereo not drawn) [Example 73, 2-Ethyl-1,4-dihydro-5-methoxycarbonyl-6-methyl-4-(4-nitro) phenyl-3-(N-(3-(4,4-diphenylpiperidin-1-yl)propyl))carboxamidopyridine], in data set [1], the Ki was 0.676 µM. In data set [2], this molecule came in with a pA2 of 8.56 ± 0.07.

As to `CCC1=C(C(=O)NCCCN2CCC(c3ccccc3)(c3ccccc3)CC2)C(c2ccc([N+](=O)[O-])cc2)C(C(=O)OC(C)(C)C)=C(COCCN=[N+]=[N-])N1` (stereo not drawn) [Example 139], the melting point lay within 62 to 67 °C. This molecule also had a Ki in data set [1] (setting [3]) of 1.26 µM.

Molecule `COC(=O)C1=C(C)NC(C)=C(C(=O)NCCCN2CCC(c3ccccc3)(c3ccccc3)CC2)C1c1ccc(C#N)cc1` (stereo not drawn) [Example 12, 4-(4-Cyanophenyl)-1,4-dihydro-3-methoxycarbonyl-2,6-dimethyl-5-(N-(3-(4,4-diphenylpiperidin-1-yl)propyl)carboxamido)pyridine] displayed a melting point of 115 to 118 °C. This molecule had a Ki in data set [1] of 1.26 µM.

In turn, `COC(=O)C1=C(C)NC(C)=C(C(=O)NCCCN2CCC(c3ccccc3)(c3ccccc3)CC2)C1c1ccc(Cl)c(Cl)c1` (stereo not drawn) [Example 24, 4-(3,4-Dichlorophenyl)-1,4-dihydro-3-methoxycarbonyl-2,6-dimethyl-5-(3-(D 44-diphenylpiperidin-1-yl)propylcarboxamido)pyridine] yielded a melting point of 177 to 178 °C. This molecule also gave a Ki in data set [1] of 1.26 µM.

The molecule `CC(C)C1=C(C(N)=O)C(c2ccc([N+](=O)[O-])cc2)C(C(=O)NCCCN2CCC(c3ccccc3)(c3ccccc3)CC2)=C(C(C)C)N1` (stereo not drawn) [Example 127] returned a melting point of 76 to 80 °C. The “pKi alpha-2 2b” value in data set [1] (setting [3]) turned out to be 6.42.

Consider `CC1=C(C(=O)NCCCN2CCC(c3ccccc3)(c3ccccc3)CC2)C(c2ccc([N+](=O)[O-])cc2)C2=C(CCCC2=O)N1` (stereo not drawn) [Example 40, 1,4,5,6,7,8-Hexahydro-2-methyl-4-(4-nitrophenyl)-5-oxo-3-{N-[3-(4,4-diphenylpiperidin-1-yl)propyl]}carboxamidoquinoline], for which the melting point was in the range of 143 to 146 °C. Besides, affinity in data set [1] (setting [4]) was put at a Ki of 1.78 µM.

`CCC1=C(C(=O)NCCCN2CCC(c3ccccc3)(c3ccccc3)CC2)C(c2ccc([N+](=O)[O-])cc2)C(C(N)=O)=C(COCCN=[N+]=[N-])N1` (stereo not drawn) [Example 149, 2-((2-Azidoethyl)oxy)methyl-3-carboxamido-6-ethyl-1,4-dihydro-4-(4-nitro) phenyl-5-(N-(3-(4,4-diphenylpiperidin-1-yl)propyl))carboxamidopyridine]: the melting point was 87 to 91 °C. The same molecule showed a Ki in data set [1] (setting [3]) of 0.562 µM.

What is called Ki is the dissociation constant of the complex between target and ligand, obtained from inhibition or displacement. As a reminder, the pA2 is a measure of antagonist potency on a negative log scale. By melting point is commonly meant the temperature of the solid-liquid transition.

The values are drawn from patent publication US6608086B2, “Dihydropyridines and new uses thereof” (Synaptic Pharmaceutical Corporation, priority 1993, dated 2003).
